Drawing on patent US6150359A, “Naphthyridinones for inhibiting protein tyrosine kinase and cell cycle kinase mediated cellular proliferation” (Warner-Lambert Company, priority 2000, dated 2000), this text covers IC50 for four compounds.

Test [1] addresses T1, PDGFr (mouse PDGF-β receptor tyrosine kinase) (Mus musculus, UniProt P05622).
T1 construct: PCR primers are designed to amplify a fragment of DNA that codes for the intracellular tyrosine kinase domain; made in house; host or cells: Sf9 insect cells (baculovirus), cell lysate
Nature of the test: PDGFr tyrosine kinase assay, 32P incorporation into glutamate-tyrosine copolymer. Conditions: 50 μM ATP. In kind it is biochemical. Here is the method:
Platelet Derived Growth Factor Receptor (PDGFr) and Fibroblast Growth Factor Receptor (FGFr). Full length cDNAs for the mouse PDGF-β and human FGF-1 (flg) receptor tyrosine kinases were obtained from J. Escobedo and are prepared as described in J. Biol. Chem., 1991;262:1482-1487. PCR primers are designed to amplify a fragment of DNA that codes for the intracellular tyrosine kinase domain. The fragment is melded into a baculovirus vector, cotransfected with AcMNPV DNA, and the recombinant virus isolated. SF9 insect cells are infected with the virus to overexpress the protein, and the cell lysate is used for the assay.
PDGFr and FGFr. […] Briefly, to each well is added 82.5 μL of incubation buffer containing 25 mM Hepes (pH 7.0), 150 mM NaCl, 0.1% Triton X-100, 0.2 mM PMSF, 0.2 mM sodium vanadate, 10 mM manganese chloride, and 750 μg/mL of poly (4:1) glutamate-tyrosine followed by 2.5 μL of inhibitor and 5 μL of enzyme lysate (7.5 μg/μL FGFR-TK or 6.0 μg/μL PDGFR-TK) to initiate the reaction. Following a 10 minute incubation at 25° C., 10 μL of [γ^32 P]ATP (0.4 μCi plus 50 μM ATP) is added to each well, and samples are incubated for an additional 10 minutes at 25° C. The reaction is terminated by the addition of 100 μL of 30% trichloroacetic acid (TCA) containing 20 mM sodium pyrophosphate and precipitation of material onto glass fiber filter mats (Wallac). […] Nonspecific activity is defined as radioactivity retained on the filters following incubation of samples with buffer alone; (no enzyme). Specific enzymatic activity is defined as total activity (enzyme plus buffer) minus nonspecific activity.

A further test concerns SW-620 cells. Nature of the test: Human Colon Carcinoma Growth Delay Assay, SW-620. The format is cell-based. Conditions: 72 h, SW-620, 3 days. Here is the method:
Human Colon Carcinoma Growth Delay Assay. Human colon carcinoma cells are seeded into 96-well tissue culture plates in a final volume of 180 μL of 10% fetal bovine serum containing growth media and allowed to incubate overnight (37° C., 5% CO2, 95% air). Cells of the SW-620 cell line are seeded at 1.0-1.5×10^4 cells per well. Cells of the HCT-8 and HT-29 cell lines are seeded at 2-4×10^3 cells per well. Serially diluted drug solutions are prepared in growth medium at 10 times concentration; 20 μL of these solutions are added to duplicate wells and incubated with the cells for 3 days in a cell culture incubator. At the end of the incubation period, cells are fixed with 100 μL per well of 10% trichloroacetic acid after removing the drug/culture medium. The plates are washed five times with tap water and stained with 100 μL per well of 0.075% sulfrhodamine B in 1% acetic acid for 10 minutes. The plates are rinsed four times and allowed to air dry. The stain in the wells are solubilized by the addition of 10 mM unbuffered Tris base and the absorbance read using a microtiter plate optical reader. Inhibition of cell growth is calculated from absorbance data of the treated cells compared to untreated control cells.

In test [2] the target is T2, EGFr (Human EGF receptor tyrosine kinase) (Homo sapiens, UniProt P00533).
T2 construct: Human EGF receptor tyrosine kinase is isolated from A431 human epidermoid carcinoma cells; endogenous in cells; host or cells: A431 human epidermoid carcinoma cells (detergent lysate, Q Sepharose fractions)
T2 sequence (P00533 25-1210): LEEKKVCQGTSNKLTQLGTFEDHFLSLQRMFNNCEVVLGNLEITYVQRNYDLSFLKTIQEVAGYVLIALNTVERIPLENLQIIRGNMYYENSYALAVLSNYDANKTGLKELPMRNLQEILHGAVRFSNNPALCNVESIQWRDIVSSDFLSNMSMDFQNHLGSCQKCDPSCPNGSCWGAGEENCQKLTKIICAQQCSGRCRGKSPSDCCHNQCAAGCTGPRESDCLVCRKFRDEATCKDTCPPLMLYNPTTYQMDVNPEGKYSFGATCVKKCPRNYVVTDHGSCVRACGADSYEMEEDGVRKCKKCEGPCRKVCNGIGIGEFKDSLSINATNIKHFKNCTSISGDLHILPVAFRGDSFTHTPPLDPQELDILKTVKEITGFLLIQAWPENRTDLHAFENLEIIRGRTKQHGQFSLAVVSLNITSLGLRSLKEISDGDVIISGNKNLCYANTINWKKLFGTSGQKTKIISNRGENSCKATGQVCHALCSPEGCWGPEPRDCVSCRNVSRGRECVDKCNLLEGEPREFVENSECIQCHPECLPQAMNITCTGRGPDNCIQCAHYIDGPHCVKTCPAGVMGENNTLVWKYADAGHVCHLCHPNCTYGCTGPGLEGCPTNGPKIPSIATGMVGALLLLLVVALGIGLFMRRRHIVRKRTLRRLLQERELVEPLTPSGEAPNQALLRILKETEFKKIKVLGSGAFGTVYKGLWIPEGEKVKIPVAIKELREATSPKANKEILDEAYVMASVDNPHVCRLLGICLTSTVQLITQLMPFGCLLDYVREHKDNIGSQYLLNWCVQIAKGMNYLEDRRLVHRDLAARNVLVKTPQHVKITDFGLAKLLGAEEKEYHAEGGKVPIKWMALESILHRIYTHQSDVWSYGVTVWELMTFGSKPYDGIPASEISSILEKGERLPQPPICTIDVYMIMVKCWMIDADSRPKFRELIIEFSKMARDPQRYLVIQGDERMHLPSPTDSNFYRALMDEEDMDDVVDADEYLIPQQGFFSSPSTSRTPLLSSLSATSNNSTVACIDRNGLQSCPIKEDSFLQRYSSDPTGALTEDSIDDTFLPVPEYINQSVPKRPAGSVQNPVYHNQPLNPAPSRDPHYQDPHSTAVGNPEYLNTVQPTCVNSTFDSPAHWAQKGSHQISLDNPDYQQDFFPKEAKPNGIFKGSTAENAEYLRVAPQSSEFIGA
As to the kind of experiment: EGFr tyrosine kinase assay. In kind it is biochemical. Conditions: 10 μM ATP. Here is the method:
Epidermal Growth Factor Receptor (EGFr). Human EGF receptor tyrosine kinase is isolated from A431 human epidermoid carcinoma cells by the following method. Cells were grown in roller bottles in 50% Dulbecco's Modified Eagle medium and 50% HAM F-12 nutrient media (Gibco) containing 10% fetal calf serum. Approximately 10^9 cells are lysed in two volumes of buffer containing 20 mM 2-(4N-[2-[…]]piperazin-1-yl)ethanesulfonic acid (Hepes), pH 7.4, 5 mM ethylene glycol bis(2-aminoethyl ether) N,N,N',N'-tetraacetic acid (EGTA), 1% Triton X-100, 10% glycerol, 0.1 mM sodium orthovanadate, 5 mM sodium fluoride, 4 mM pyrophosphate, 4 mM benzamide, 1 mM dithiothreitol (DTT), 80 μg/mL aprotinin, 40 μg/mL leupeptin, and 1 mM phenylmethylsulfonyl fluoride (PMSF). After centrifugation at 25,000×g for 10 minutes, the supernatant is applied to a fast Q sepharose column (Pharmacia) and eluted with a linear gradient from 0.1 M NaCl to 0.4 M NaCl in 50 mM Hepes, 10% glycerol, pH 7.4. Enzyme active fractions are pooled, divided into aliquots, and stored at -100° C.
EGFr. Enzyme assays for IC50 determinations are performed in 96-well filter plates (Millipore MADVN6550). The total volume is 0.1 mL containing 20 mM Hepes, pH 7.4, 50 μM sodium vanadate, 40 mM magnesium chloride, 10 μM ATP containing 0.5 μCi of [^32 P]ATP, 20 μg of polyglutamic acid/tyrosine (Sigma Chemical Co., St. Louis, Mo.), 10 ng of EGF receptor tyrosine kinase and appropriate dilutions of inhibitor. All components except the ATP are added to the well, and the plate is incubated with shaking for 10 minutes at 25° C. The reaction is started by adding [^32 P]ATP, and the plate is incubated at 25° C. for 10 minutes. The reaction is terminated by addition of 0.1 mL of 20% trichloroacetic acid (TCA). The plate is kept at 4° C. for at least 15 minutes to allow the substrate to precipitate. The wells are then washed five times with 0.2 mL of 10% TCA, and ^32 P incorporation is determined with a Wallac beta plate counter.

T1 sequence (P05622 599-961 limits assumed): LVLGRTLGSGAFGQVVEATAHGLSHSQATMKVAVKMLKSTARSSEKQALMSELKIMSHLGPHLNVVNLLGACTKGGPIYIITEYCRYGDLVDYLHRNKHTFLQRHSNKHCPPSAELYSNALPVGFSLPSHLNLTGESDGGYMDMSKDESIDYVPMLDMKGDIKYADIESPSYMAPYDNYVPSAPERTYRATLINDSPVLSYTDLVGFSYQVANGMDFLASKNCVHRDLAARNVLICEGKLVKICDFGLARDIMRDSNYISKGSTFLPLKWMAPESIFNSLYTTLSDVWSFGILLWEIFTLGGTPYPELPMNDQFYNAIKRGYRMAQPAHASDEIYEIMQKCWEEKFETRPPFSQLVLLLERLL

By IC50 is commonly meant the concentration that gives 50% inhibition. Lower therefore signals inhibition by little substance. For `CCN(CC)CCCCNc1cc2c(cn1)cc(-c1c(Cl)cccc1Cl)c(=O)n2C` [Example F, 3-(2,6-dichlorophenyl)-7-[4-(diethylamino)butylamino]-1-methyl-1H-[1,6]naphthyridin-2-one], the IC50 was 0.42 µM in test [1], 7.2 µM in the test with SW-620 cells and 3.8 µM in test [2].
As for `CN1CCN(CCCNc2cc3c(cn2)cc(-c2c(Cl)cccc2Cl)c(=O)n3C)CC1` [Example H, 3-(2,6-dichlorophenyl)-1-methyl-7-[3-(4-methylpiperazin-1-yl)propylamino]-1H-[1,6]naphthyridin-2-one], the IC50 is 0.89 µM in test [1], 5.2 µM in the test on SW-620 cells and 3.2 µM in test [2].
As to `CCN(CC)CCOc1ccc(Nc2cc3c(cn2)cc(-c2c(Cl)cccc2Cl)c(=O)n3C)cc1` [Example P, 3-(2,6-dichlorophenyl)-7-[(4-(2-(diethylamino)ethoxy)phenyl)amino]-1-methyl-1H-[1,6]naphthyridin-2-one], the IC50 worked out at 0.09 µM in test [1], 6.7 µM in the test on SW-620 cells and 0.59 µM in test [2].
In the case of `CN1CCN(CCOc2ccc(Nc3cc4c(cn3)cc(-c3c(Cl)cccc3Cl)c(=O)n4C)cc2)CC1` [Example S, 3-(2,6-dichlorophenyl)-1-methyl-7-[(4-(2-(4-methylpiperazin-1-yl)ethoxy)phenyl)amino]-1H-[1,6]naphthyridin-2-one], the values for the IC50 (in test [1]; in the test on SW-620 cells) were 0.34 µM and 6.8 µM, respectively.
